# Like-named read-outs stand apart in the source and are kept apart here.
# Assays:
# [1] = for CT Scan - Small Airways Disease, Change from Baseline / CT Scan - Small Airways Disease, Result / CT Scan Parametric Imaging - Emphysema, Change from Baseline / CT Scan Parametric Imaging - Emphysema, Result / CT Scan - Air Trapping Index -856 HU, Change from Baseline / CT Scan - Air Trapping Index -856 HU, Result: Week 16; for CT Scan - Air Trapping Index -856 HU, Change from Baseline: first Change column under heads Inspiratory | Expiratory; for CT Scan - Air Trapping Index -856 HU, Result: first Result column under heads Inspiratory | Expiratory
# Text: All eligible participants received inspiratory and expiratory CT scans at Baseline and at Week 16 to assess for changes in mucus plugs and airway architecture (e.g., changes in airway wall thickness).
# [2] = 150 mg BID; participants with ALS and EADs; cited from earlier work
structure (smiles),measurement,setting,value
"CCCN[C@@H]1CCc2nc(N)sc2C1 [Dexpramipexole, (6R)-2-amino-4,5,6,7-tetrahydro-6-(propylamino)benzothiazole]","CT Scan - Small Airways Disease, Change from Baseline",[1]; Subject ID 10001-001-0001,−7.12
same,"CT Scan - Small Airways Disease, Result",[1]; Subject ID 10001-001-0001,25.72
same,"CT Scan Parametric Imaging - Emphysema, Change from Baseline",[1]; Subject ID 10001-001-0001,2.41
same,"CT Scan Parametric Imaging - Emphysema, Result",[1]; Subject ID 10001-001-0001,36.28
same,"CT Scan - Air Trapping Index -856 HU, Change from Baseline",[1]; Subject ID 10001-001-0001,−0.29%
same,"CT Scan - Air Trapping Index -856 HU, Result",[1]; Subject ID 10001-001-0001,49.57%
same,"CT Scan - Small Airways Disease, Change from Baseline",[1]; Subject ID 10001-008-0002,2.18
same,"CT Scan - Small Airways Disease, Result",[1]; Subject ID 10001-008-0002,51.14
same,"CT Scan Parametric Imaging - Emphysema, Change from Baseline",[1]; Subject ID 10001-008-0002,−0.73
same,"CT Scan Parametric Imaging - Emphysema, Result",[1]; Subject ID 10001-008-0002,35.88
same,"CT Scan - Air Trapping Index -856 HU, Change from Baseline",[1]; Subject ID 10001-008-0002,0.57%
same,"CT Scan - Air Trapping Index -856 HU, Result",[1]; Subject ID 10001-008-0002,68.06%
same,"CT Scan - Small Airways Disease, Change from Baseline",[1]; Subject ID 10001-010-0005,−3.80
same,"CT Scan - Small Airways Disease, Result",[1]; Subject ID 10001-010-0005,39.08
same,"CT Scan Parametric Imaging - Emphysema, Change from Baseline",[1]; Subject ID 10001-010-0005,0.16
same,"CT Scan Parametric Imaging - Emphysema, Result",[1]; Subject ID 10001-010-0005,12.11
same,"CT Scan - Air Trapping Index -856 HU, Change from Baseline",[1]; Subject ID 10001-010-0005,−2.18%
same,"CT Scan - Air Trapping Index -856 HU, Result",[1]; Subject ID 10001-010-0005,29.57%
same,"CT Scan - Small Airways Disease, Change from Baseline",[1]; Subject ID 10001-022-0001,−4.12
same,"CT Scan - Small Airways Disease, Result",[1]; Subject ID 10001-022-0001,46.36
same,"CT Scan Parametric Imaging - Emphysema, Change from Baseline",[1]; Subject ID 10001-022-0001,−4.75
same,"CT Scan Parametric Imaging - Emphysema, Result",[1]; Subject ID 10001-022-0001,8.59
same,"CT Scan - Air Trapping Index -856 HU, Change from Baseline",[1]; Subject ID 10001-022-0001,−11.40%
same,"CT Scan - Air Trapping Index -856 HU, Result",[1]; Subject ID 10001-022-0001,27.88%
same,CT scoring for small airway disease,[1]; all patients,All patients showed an improvement in scoring
same,"CT scoring for Air Trapping, change",[1]; one patient,−11.40
same,"CT scoring for emphysema, decrease",[1]; one patient,4.75 points
same,"CT scoring for small airway disease, improvement",[1]; one patient,7.12 points
same,safety profile,[2],favorable safety profile
